In US20260042764A1, “COMPOSITIONS AND METHODS FOR INHIBITION OF KRAS” (TheRas, Inc., priority 2022, published 2026):

Experiments:
[1] = molecular target: T1, Avi-KRAS G12R (1-169) GppNHp/RAF1 RBD-3xFLAG (52-151) (Homo sapiens, UniProt P01116, G12R); assay: Raf1-KRAS G12R-GppNHP disruption HTRF assay (Biological Example 1); assay type: binding; conditions: KRAS G12R-GppNHp/RAF1 RBD HTRF
T1 construct: Avi-KRAS G12R (1-169)
Method in brief: (§1)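 Measured with a KRAS/RAF1 HTRF assay at pH 7.5 in 10% DMSO, with two 1 h room-temperature incubations with shaking.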

[2] = tested on: GP2d cells (KRAS G12D); assay: Cell-based pERK HTRF assay in GP2d cell (Biological Example 2); conditions: GP2d (KRAS G12D) cells, pERK HTRF
Method in brief: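 60 min compound, 0.25% DMSO, 9-pt half-log curve from 1 μM or 100 nM; DMEM/10% FBS.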

[3] = molecular target: T2, Avi-KRAS G12D (1-169) GppNHp/RAF1 RBD-3xFLAG (52-151) (Homo sapiens, UniProt P01116, G12D); assay: Raf1-KRAS G12D-GppNHP disruption HTRF assay (Biological Example 1); assay type: binding; conditions: KRAS G12D-GppNHp/RAF1 RBD HTRF
T2 construct: Avi-KRAS G12D (1-169)
Method in brief: as §1

[4] = tested on: SW620 cells (KRAS G12V); assay: Cell-based pERK HTRF assay in SW620 cell (Biological Example 4); conditions: pERK HTRF
Method in brief: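 This assay measures inhibition of ERK phosphorylation downstream of KRAS G12V in intact SW620 cells. Compounds are applied for 4 h over nine half-log concentrations starting at 1 μM, and pERK is quantified by HTRF.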

[5] = molecular target: T3, Avi-KRAS WT (1-169) GppNHp/RAF1 RBD-3xFLAG (52-151) (Homo sapiens, UniProt P01116); assay: Raf1-KRAS WT-GppNHP disruption HTRF assay (Biological Example 1); assay type: binding; conditions: KRAS WT-GppNHp/RAF1 RBD HTRF
T3 construct: Avi-KRAS WT (1-169)
Method in brief: as §1

[6] = molecular target: T4, Avi-KRAS G12V (1-169) GppNHp/RAF1 RBD-3xFLAG (52-151) (Homo sapiens, UniProt P01116, G12V); assay: Raf1-KRAS G12V-GppNHP disruption HTRF assay (Biological Example 1); assay type: binding; conditions: KRAS G12V-GppNHp/RAF1 RBD HTRF
T4 construct: Avi-KRAS G12V (1-169)
Method in brief: as §1

[7] = Homo sapiens, SW-620, SW620 (KRAS G12V) cells

T4 sequence (P01116 1-169 isoform P01116-2 G12V): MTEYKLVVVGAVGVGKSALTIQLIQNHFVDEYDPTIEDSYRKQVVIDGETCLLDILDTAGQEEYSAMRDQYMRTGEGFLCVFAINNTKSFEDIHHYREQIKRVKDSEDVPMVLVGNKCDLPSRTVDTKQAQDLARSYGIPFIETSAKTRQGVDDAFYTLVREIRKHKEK
T3 sequence (P01116 1-169 isoform P01116-2): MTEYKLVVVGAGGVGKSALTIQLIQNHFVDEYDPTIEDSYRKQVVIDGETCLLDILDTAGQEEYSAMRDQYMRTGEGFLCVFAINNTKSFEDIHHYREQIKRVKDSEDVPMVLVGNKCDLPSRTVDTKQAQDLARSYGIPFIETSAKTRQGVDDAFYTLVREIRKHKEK
T1 sequence (P01116 1-169 isoform P01116-2 G12R): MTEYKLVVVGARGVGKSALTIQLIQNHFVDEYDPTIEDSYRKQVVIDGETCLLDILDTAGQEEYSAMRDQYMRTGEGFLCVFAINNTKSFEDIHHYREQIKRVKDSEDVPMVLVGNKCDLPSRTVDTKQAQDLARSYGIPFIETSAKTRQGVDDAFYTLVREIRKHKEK
T2 sequence (P01116 1-169 isoform P01116-2 G12D): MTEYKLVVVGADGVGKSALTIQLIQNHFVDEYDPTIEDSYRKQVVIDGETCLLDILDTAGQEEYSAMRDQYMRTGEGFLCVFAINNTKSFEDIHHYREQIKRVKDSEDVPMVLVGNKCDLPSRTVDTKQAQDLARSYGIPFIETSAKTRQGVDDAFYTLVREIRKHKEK

SMILES	IC50 [1] [nM]	IC50 [2] [nM]	IC50 [3] [nM]	IC50 ([4]; SW620 (KRAS G12V) cells) [nM]	IC50 [5] [nM]	IC50 [6] [nM]	IC50 ([2]; GP2d) [nM]	IC50 [4, 7] [nM]
N#Cc1c(N)sc2c(F)ccc(-c3c(C(F)(F)F)cc4c(N5CCN6C(=O)OCC6C5)nc(OCC56CCCN5CC(F)C6)nc4c3F)c12 (stereo not drawn) [Compound 431]	1000 to 10000	< 100	1000 to 10000	< 100	1000 to 10000	1000 to 10000		
CCC(=O)N1CC[C@@H](N(C)c2nc(OC[C@@]34CCCN3C[C@H](F)C4)nc3c(F)c(-c4ccc(F)c5sc(N)c(C#N)c45)c(C(F)(F)F)cc23)[C@H]1CC [Compound 432]	100 to 1000		1000 to 10000		100 to 1000	1000 to 10000	< 100	100 to 1000
CC[C@@H]1[C@H](N(C)c2nc(OC[C@@]34CCCN3C[C@H](F)C4)nc3c(F)c(-c4ccc(F)c5sc(N)c(C#N)c45)c(C(F)(F)F)cc23)CCN1C(=O)C(C)C [Compound 433]	1000 to 10000		1000 to 10000		1000 to 10000	1000 to 10000	100 to 1000	100 to 1000
CC[C@@H]1[C@H](N(C)c2nc(OC[C@@]34CCCN3C[C@H](F)C4)nc3c(F)c(-c4ccc(F)c5sc(N)c(C#N)c45)c(C(F)(F)F)cc23)CCN1C(=O)C1CC1 [Compound 434]	1000 to 10000		1000 to 10000		100 to 1000	1000 to 10000	100 to 1000	100 to 1000
CCC(=O)N1C[C@@H](N(C)c2nc(OC[C@@]34CCCN3C[C@H](F)C4)nc3c(F)c(-c4ccc(F)c5sc(N)c(C#N)c45)c(C(F)(F)F)cc23)C[C@@H]1C [Compound 435]	100 to 1000		100 to 1000		100 to 1000	100 to 1000	< 100	< 100
CC(C)C(=O)N1C[C@@H](N(C)c2nc(OC[C@@]34CCCN3C[C@H](F)C4)nc3c(F)c(-c4ccc(F)c5sc(N)c(C#N)c45)c(C(F)(F)F)cc23)C[C@@H]1C [Compound 436]	100 to 1000		1000 to 10000		1000 to 10000	1000 to 10000	< 100	< 100
C[C@H]1C[C@H](N(C)c2nc(OC[C@@]34CCCN3C[C@H](F)C4)nc3c(F)c(-c4ccc(F)c5sc(N)c(C#N)c45)c(C(F)(F)F)cc23)CN1C(=O)C1CC1 [Compound 437]	100 to 1000		100 to 1000		100 to 1000	100 to 1000	< 100	< 100
CC(=O)N1C2CCC1CN(c1nc(OC[C@@]34CCCN3C[C@H](F)C4)nc3c(F)c(-c4ccc(F)c5sc(N)c(C#N)c45)c(C(F)(F)F)cc13)C2 [Compound 438]	100 to 1000		100 to 1000		100 to 1000	1000 to 10000	< 100	< 100
N#Cc1c(N)sc2c(F)ccc(-c3c(C(F)(F)F)cc4c(N5CC6CCC(C5)N6C(=O)C5CC5)nc(OC[C@@]56CCCN5C[C@H](F)C6)nc4c3F)c12 [Compound 439]	1000 to 10000		100 to 1000		1000 to 10000	1000 to 10000	< 100	< 100
CN1C[C@H](N(C)c2nc(OC[C@@]34CCCN3C[C@H](F)C4)nc3c(F)c(-c4ccc(F)c5sc(N)c(C#N)c45)c(C(F)(F)F)cc23)CCC1=O [Compound 441]	1000 to 10000		1000 to 10000		100 to 1000	1000 to 10000	< 100	< 100
C[C@@H]1C[C@H](N(C)c2nc(OC[C@@]34CCCN3C[C@H](F)C4)nc3c(F)c(-c4ccc(F)c5sc(N)c(C#N)c45)c(C(F)(F)F)cc23)CN1C(=O)C1CC1 [Compound 443]	100 to 1000		100 to 1000		100 to 1000	100 to 1000	< 100	< 100
CCC(=O)N1CC(N(C)c2nc(OCC34CCCN3CC(F)C4)nc3c(F)c(-c4ccc(F)c5sc(N)c(C#N)c45)c(C(F)(F)F)cc23)CC1C (stereo not drawn) [Compound 444]	1000 to 10000	< 100	100 to 1000	< 100	100 to 1000	1000 to 10000		
CN(C)C(=O)c1nc2c(s1)CCN(c1nc(OCC34CCCN3CC(F)C4)nc3c(F)c(-c4ccc(F)c5sc(N)c(C#N)c45)c(C(F)(F)F)cc13)C2 (stereo not drawn) [Compound 445]	> 10000		1000 to 10000		> 10000	> 10000	> 1000	100 to 1000
CCN(c1nc(OC[C@@]23CCCN2C[C@H](F)C3)nc2c(F)c(-c3ccc(F)c4sc(N)c(C#N)c34)c(C(F)(F)F)cc12)[C@H]1C[C@@H](C)N(C(C)=O)C1 [Compound 446]	100 to 1000		< 100		100 to 1000	100 to 1000	< 100	< 100
CC(C)C(=O)N1C[C@@H](N(C)c2nc(OC[C@@]34CCCN3C[C@H](F)C4)nc3c(F)c(-c4ccc(F)c5sc(N)c(C#N)c45)c(C(F)(F)F)cc23)C[C@H]1C [Compound 448]	1000 to 10000		100 to 1000		100 to 1000	1000 to 10000	< 100	100 to 1000
N#Cc1c(N)sc2c(F)ccc(-c3c(C(F)(F)F)cc4c(N5CCc6[nH]ncc6C5)nc(OCC56CCCN5CC(F)C6)nc4c3F)c12 (stereo not drawn) [Compound 449]	1000 to 10000		1000 to 10000		1000 to 10000	1000 to 10000	100 to 1000	100 to 1000
CN(c1nc(OC[C@@]23CCCN2C[C@H](F)C3)nc2c(F)c(-c3ccc(F)c4sc(N)c(C#N)c34)c(C(F)(F)F)cc12)[C@@H]1C[C@@H]2COC(=O)N2C1 [Compound 450]	100 to 1000		100 to 1000		100 to 1000	100 to 1000	< 100	< 100
CC(=O)N1C[C@@H]2CCCN(c3nc(OC[C@@]45CCCN4C[C@H](F)C5)nc4c(F)c(-c5ccc(F)c6sc(N)c(C#N)c56)c(C(F)(F)F)cc34)[C@@H]2C1 [Compound 451]	1000 to 10000		100 to 1000		100 to 1000	1000 to 10000	< 100	100 to 1000
CN(c1nc(OC[C@@]23CCCN2C[C@H](F)C3)nc2c(F)c(-c3ccc(F)c4sc(N)c(C#N)c34)c(C(F)(F)F)cc12)[C@@H]1CC(=O)N(Cc2ccccc2)C1 [Compound 452]	100 to 1000		100 to 1000		100 to 1000	100 to 1000	< 100	100 to 1000
CC(=O)N1C[C@H]2CCCN(c3nc(OC[C@@]45CCCN4C[C@H](F)C5)nc4c(F)c(-c5ccc(F)c6sc(N)c(C#N)c56)c(C(F)(F)F)cc34)[C@H]2C1 [Compound 453]	1000 to 10000		1000 to 10000		1000 to 10000	1000 to 10000	< 100	< 100
